According to patent publication US5451407A, “Reduction or prevention of skin irritation or sensitization during transdermal administration of a irritating or sensitizing drug” (ALZA Corporation, priority 1993, dated 1995):

Key:
[1] = tested on: chloroquine-induced irritation; assay: Effect of methyl nicotinate on chloroquine-induced irritation (Finn chamber, Minolta Chroma Meter); format: in vivo, adult human male; conditions: 0.05 w/v methyl nicotinate with chloroquine base 1% w/v, 16 hours application, human forearm; scored 3 hours to 7 days; FIG. 5
Text: The following formulations were made to determine the effect of methyl nicotinate on chloroquine-induced irritation:
1) chloroquine base 1% w/v, ethanol 24% w/v, HEPPS 5% w/v, hydroxyethylcellulose gel 2% w/v, NaOH q.s. pH 8.5 and distilled water q.s.,
2) chloroquine base 1% w/v, methyl nicotinate 0.05 w/v, ethanol 24% w/v, HEPPS 5% w/v, hydroxyethylcellulose gel 2% w/v, NaOH q.s. pH 8.5 and distilled water q.s.,
3) methyl nicotinate 0.05 w/v, ethanol 24% w/v, HEPPS 5% w/v, hydroxyethyl cellulose gel 2% w/v, NaOH q.s. pH 8.5 and distilled water q.s., and
4) ethanol 24% w/v, HEPPS 5% w/v, hydroxyethylcellulose gel 2% w/v, NaOH q.s. pH 8.5 and distilled water q.s.
0.020 ml of each formulation was placed in a Finn® chamber. The chambers were inverted and applied to four skin sites on the forearm of an adult human. […] At 3 hours, 8 hours, 1 day, 2 days, 3 days, 4 days, 6 days and 7 days thereafter, the sites were observed and the intensity of the irritant reaction was scored with a Minolta® Chroma Meter.
The Minolta® Chroma Meter converts all colors within the range of human perception into a numerical code using the L*, a* and b* notation system. […] Minolta® measurements were made by taking the mean a* value of three readings at the treated site. That result was then subtracted from the mean a* value of three readings at adjacent sites treated with a placebo formulation.

[2] = tested on: elicitation of sensitization to propranolol; assay: Effect of methyl nicotinate on the elicitation of sensitization to propranolol (Minolta Chroma Meter); format: in vivo, adult male known to be sensitized to propranolol; conditions: 0.05 w/v percent methyl nicotinate with 0.1 w/v percent propranolol base, two hours application, upper arm; recorded two and three days later; FIG. 6
Text: The following formulations were made to determine the effect of methyl nicotinate on the elicitation of sensitization to propranolol:
1) 0.1 w/v percent propranolol base, 32 w/v percent ethanol, 5 w/v percent HEPPS, 2 w/v percent hydroxyethylcellulose, NaOH q.s. pH 8 and distilled water q.s., and
2) 0.1 w/v percent propranolol base, 0.05 w/v percent methyl nicotinate, 32 w/v percent ethanol, 5 w/v percent HEPPS, 2 w/v percent hydroxyethylcellulose, NaOH q.s. pH 8 and distilled water q.s.
0.020 ml of each formulation was placed in a Finn® chamber. The chambers were applied to four sites on the upper arm of an adult, who was known to be sensitized to propranolol. After two hours the chambers were removed and the sites washed. The intensity of the reaction was recorded two and three days later using the mean a* measurement recorded by a Minolta® Chroma Meter.

[3] = tested on: sensitization and elicitation of sensitization to tetracaine; assay: Sensitization and elicitation reactions to tetracaine at 72 hours, Minolta Chroma Meter; format: in vivo, hairless guinea pigs; conditions: for a" value: challenge 1% tetracaine, alone or + 1% methyl nicotinate, Minolta Chroma Meter
Text: The Minolta® Chroma Meter converts all colors within the range of human perception into a numerical code using the L*, a* and b* notation system. L* expresses brightness on the black-white axis; a* expresses hue on the red-green axis; and b* expresses chroma on the yellow-blue axis so that a specific numerical code enables an exact color description of an object. Minolta® measurements were made by taking the mean a* value of three readings at the treated site.
(§1) After the ninth induction exposure, the animals received no treatment for two weeks. The following formulations were used to determine the effect of methyl nicotinate on the sensitization and elicitation of sensitization to tetracaine during the challenge phase:
(§2) 1) 1 w/v percent tetracaine HCl, 28 w/v percent ethanol, 5 w/v percent HEPPS, 2 w/v percent hydroxypropylcellulose, NaOH q.s. pH 8 and distilled water q.s.,
(§3) 2) 1 w/v percent tetracaine HCl, 1.0 w/v percent methyl nicotinate, 28 w/v percent ethanol, 5 w/v percent HEPPS, 2 w/v percent hydroxypropylcellulose, NaOH q.s. pH 8 and distilled water q.s., and
(§4) 3) 28 w/v percent ethanol, 5 w/v percent HEPPS, 2 w/v percent hydroxypropylcellulose, NaOH q.s. pH 8 and distilled water q.s.
(§5) 0.1 ml of each formulation was placed in a Finn® chamber. The chamber was then applied to the backs of the animals for 6 hours on previously untreated sites.
The test sites of the animals were then scored using a Minolta® Chroma Meter.

[4] = tested on: cumulative irritation produced by tetracaine HCl; assay: Cumulative irritation produced by tetracaine HCl during the induction phase, visual score; format: in vivo, hairless guinea pigs; conditions: 2% tetracaine, alone or + 1% methyl nicotinate, Table 1 scale (total possible score 8)
Text: The following formulations were made to determine the effect of methyl nicotinate on the cumulative irritation produced by tetracaine HCl during the induction phase:
1) 2 w/v percent tetracaine HCl, 28 w/v percent ethanol, 5 w/v percent HEPPS, 2 w/v percent hydroxypropylcellulose, NaOH q.s. pH 8 and distilled water q.s.,
2) 2 w/v percent tetracaine HCl, 1.0 w/v percent methyl nicotinate, 28 w/v percent ethanol, 5 w/v percent HEPPS, 2 w/v percent hydroxypropylcellulose, NaOH q.s. pH 8 and distilled water q.s., and
as §4
0.1 ml of each formulation was placed in a Finn® chamber, and applied to the back of a hairless guinea pigs (Charles River). After 6 hours the chambers were removed. This was repeated a total of nine times. The inductions were alternated between two sites, such that one site received five applications and the other site received four applications. Two, 24 and 48 hours after removal of the first, fourth, seventh and ninth applications, the treatment sites were scored to assess irritation.

[5] = tested on: sensitization and elicitation of sensitization to tetracaine; assay: Sensitization and elicitation of sensitization to tetracaine during the challenge phase, visual score; format: in vivo, hairless guinea pigs; parameters: scale not given here; conditions: challenge 1% tetracaine, alone or + methyl nicotinate (1.0 w/v percent), Table 1 scale
Text: as §1, §2, §3, §4, §5

With `COC(=O)c1cccnc1` [methyl nicotinate] the “irritant reaction (mean a* value)” value [1] was “reduced the irritant reaction”, the “elicitation of the sensitization reaction (mean a* value)” value [2] was “inhibited the elicitation of the sensitization reaction” and the “elicitation reaction to tetracaine (Minolta scores)” value ([3]; FIG. 9) was “decreased”. The “sensitization reaction to tetracaine (Minolta scores)” value ([3]; FIG. 9) was “decreased”.
For `CCCCNc1ccc(C(=O)OCCN(C)C)cc1` [tetracaine], the visual irritation score ([4]; application four, 2 h after removal) was 2.7, the visual irritation score ([4]; application four, 24 h after removal) was 2.6 and the visual irritation score ([4]; application four, 48 h after removal) was 1.8. The visual irritation score ([4]; application nine, 2 h after removal) was 6.7, the visual irritation score ([4]; application nine, 24 h after removal) was 6.6 and the visual irritation score ([4]; application nine, 48 h after removal) was 6.0. For the same compound, the visual irritation score ([4]; application one, 2 h after removal) was 1.9, the visual irritation score ([4]; application one, 24 h after removal) was 1.2 and the visual irritation score ([4]; application one, 48 h after removal) was 1.1. The visual irritation score ([4]; application seven, 2 h after removal) was 5.8, the visual irritation score ([4]; application seven, 24 h after removal) was 5.9 and the visual irritation score ([4]; application seven, 48 h after removal) was 5.6. For the same compound, the “visual score of challenge site” value ([5]; induction 2% tetracaine + 1% methyl nicotinate, 2 h after removal) was 2.8, the “visual score of challenge site” value ([5]; induction 2% tetracaine + 1% methyl nicotinate, 24 h after removal) was 2.3 and the “visual score of challenge site” value ([5]; induction 2% tetracaine + 1% methyl nicotinate, 48 h after removal) was 2.1. For the same compound, the “visual score of challenge site” value ([5]; induction 2% tetracaine + 1% methyl nicotinate, 72 h after removal) was 2.0, the “visual score of challenge site” value ([5]; induction 2% tetracaine, 2 h after removal) was 3.4 and the “visual score of challenge site” value ([5]; induction 2% tetracaine, 24 h after removal) was 2.5. For the same compound, the “visual score of challenge site” value ([5]; induction 2% tetracaine, 48 h after removal) was 2.2, the “visual score of challenge site” value ([5]; induction 2% tetracaine, 72 h after removal) was 2.1 and the “visual score of challenge site” value ([5]; induction Control, 2 h after removal) was 1.6. For the same compound, the “visual score of challenge site” value ([5]; induction Control, 24 h after removal) was 1.0, the “visual score of challenge site” value ([5]; induction Control, 48 h after removal) was 0.8 and the “visual score of challenge site” value ([5]; induction Control, 72 h after removal) was 0.6. The “a" value” ([3]; induction formulation 2% tetracaine + 1% methyl nicotinate) was 10.6, the “a" value” ([3]; induction formulation 2% tetracaine) was 12.8 and the “a" value” ([3]; induction formulation Control) was 8.8.
